Reference: patent US20140081025A1, “HETEROAROMATIC RING DERIVATIVE” (TAISHO PHARMACEUTICAL CO., LTD., priority 2011, published 2014)

What was measured:
[1] = target: T1, human orexin 2 receptor (hOX2R) (Homo sapiens, UniProt O43614); test: Measurement of orexin antagonist activity (intracellular Ca2+ fluorescence, FDSS) in CHO cells expressing hOX2R; assay type: cell-based; conditions: CHO cells forcibly expressing hOX2R; ligand (two-amino-acid-substituted human orexin-A) 3 nM; Fluo 4-AM; read-out: IC50 value OX2
T1 construct: expressed in transfected cells; host or cells: Chinese hamster ovary (CHO) cells
T1 sequence (O43614 1-444): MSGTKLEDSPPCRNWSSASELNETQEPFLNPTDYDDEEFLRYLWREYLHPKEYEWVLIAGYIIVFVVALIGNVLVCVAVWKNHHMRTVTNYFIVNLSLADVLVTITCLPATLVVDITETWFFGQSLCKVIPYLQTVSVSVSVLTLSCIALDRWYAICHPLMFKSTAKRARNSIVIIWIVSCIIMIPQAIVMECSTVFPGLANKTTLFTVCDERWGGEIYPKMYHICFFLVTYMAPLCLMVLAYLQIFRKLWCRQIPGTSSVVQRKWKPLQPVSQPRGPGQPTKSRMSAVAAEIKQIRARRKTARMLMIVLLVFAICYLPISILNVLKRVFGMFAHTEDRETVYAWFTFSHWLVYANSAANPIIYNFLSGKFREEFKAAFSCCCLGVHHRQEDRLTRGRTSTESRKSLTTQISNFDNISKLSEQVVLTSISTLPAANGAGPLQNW
Procedure: (§1) The antagonist activity of a test compound against the human orexin 1 receptor (hOX1R) or orexin 2 receptor (hOX2R) was measured by the method described in the document (Toshikatsu Okumura et al., Biochemical and Biophysical Research Communications, 280, 976-981, 2001) with appropriate modification. Chinese hamster ovary (CHO) cells forcibly expressing hOX1R or hOX2R were seeded into each well of a 96-well Black clear bottom plate (Nunc A/S) in the amount of 20000 cells per well and were cultured in a Ham's F-12 medium (Invitrogen, Inc.) containing 0.1 mM MEM non-essential amino acids (Invitrogen, Inc.), 0.5 mg/mL G418 (Invitrogen, Inc.), and 10% fetal calf serum (Invitrogen, Inc.) at 37° C. in 5% CO2 for 16 hours. The medium was removed, and then added to each well was 100 μL of an assay buffer (pH 7.4) containing 0.5 μM Fluo 4-AM ester (Dojindo Laboratories), wherein the buffer was composed of 25 mM HEPES (Dojindo Laboratories), a Hanks' balanced salt solution (Invitrogen, Inc.), 0.1% bovine serum albumin (Sigma-Aldrich Co., LLC.), 2.5 mM probenecid (Sigma-Aldrich Co., LLC.), and 200 μg/mL Amaranth (Sigma-Aldrich Co., LLC.), followed by incubation at 37° C. in 5% CO2 for 60 min. The assay buffer containing Fluo 4-AM ester was removed, and then 150 μL of an assay buffer solution containing 10 mM of the test compound dissolved in dimethyl sulfoxide was added to each well, followed by incubation for 30 min.
(§2) A peptide (Pyr-[…]NH2: Peptide Institute, Inc.), which is a ligand having substitution of two amino acids in human orexin-A, was diluted with an assay buffer to a final concentration of 300 pM for hOX1R and to a final concentration of 3 nM for hOX2R. The reaction was started by adding 50 μL of this ligand solution to each well. The reaction was monitored by measuring the fluorescence of each well at each 1 second for 3 min with a Functional Drug Screening System (FDSS manufactured by Hamamatsu Photonics K.K.), and the antagonist activity was determined based on the maximum fluorescence value as an index of the intracellular Ca^2+ concentration. The antagonist activity of a test compound was calculated by assuming that the fluorescence value of the well containing only a dilution buffer was 100% and that the fluorescence value of the well containing a buffer not containing the ligand or any test compound was 0%. The 50% inhibitory concentration (IC50 value) of a test compound was determined from fluorescence values at various concentrations of the test compound.

[2] = target: T2, human orexin 1 receptor (hOX1R) (Homo sapiens, UniProt O43613); test: Measurement of orexin antagonist activity (intracellular Ca2+ fluorescence, FDSS) in CHO cells expressing hOX1R; assay type: cell-based; conditions: CHO cells forcibly expressing hOX1R; ligand (two-amino-acid-substituted human orexin-A) 300 pM; Fluo 4-AM; read-out: IC50 value OX1
T2 construct: expressed in transfected cells; host or cells: Chinese hamster ovary (CHO) cells
T2 sequence (O43613 1-425): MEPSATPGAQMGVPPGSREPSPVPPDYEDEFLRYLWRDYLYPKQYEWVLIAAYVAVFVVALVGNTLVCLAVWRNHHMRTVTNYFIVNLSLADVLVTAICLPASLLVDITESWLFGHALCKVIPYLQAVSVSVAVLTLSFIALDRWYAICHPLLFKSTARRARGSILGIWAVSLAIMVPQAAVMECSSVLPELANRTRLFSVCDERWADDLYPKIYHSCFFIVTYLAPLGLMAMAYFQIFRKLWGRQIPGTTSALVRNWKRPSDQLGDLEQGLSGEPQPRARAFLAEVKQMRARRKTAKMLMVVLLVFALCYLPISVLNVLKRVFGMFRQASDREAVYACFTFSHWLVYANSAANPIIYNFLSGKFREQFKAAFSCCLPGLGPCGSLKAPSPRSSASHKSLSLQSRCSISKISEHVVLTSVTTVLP
Procedure: as §1, §2

Structure (SMILES) | IC50 [1] [nM] | IC50 [2] [nM]
CCN(CCc1cnn(-c2ccc(F)cn2)c1)C(=O)c1cc(C)ccc1-n1nccn1 [Example 1, N-Ethyl-N-{2-[1-(5-fluoropyridin-2-yl)-1H-pyrazol-4-yl]ethyl}-5-methyl-2-(2H-1,2,3-triazol-2-yl)benzamide] | 5.2 | 1.8
Cc1ccc(-n2nccn2)c(C(=O)N(C)CCc2cnn(-c3ccc(F)cn3)c2)c1 [Example 2, N-{2-[1-(5-Fluoropyridin-2-yl)-1H-pyrazol-4-yl]ethyl}-N,5-dimethyl-2-(2H-1,2,3-triazol-2-yl)benzamide] | 8.5 | 0.7
CCN(CCc1cnn(-c2ccc(F)cn2)c1)C(=O)c1ccccc1-n1nccn1 [Example 3, N-Ethyl-N-{2-[1-(5-fluoropyridin-2-yl)-1H-pyrazol-4-yl]ethyl}-2-(2H-1,2,3-triazol-2-yl)benzamide] | 60.6 | 4.2
CCN(CCc1ccn(-c2ccc(F)cn2)n1)C(=O)c1ccccc1-n1nccn1 [Example 4, N-Ethyl-N-{2-[1-(5-fluoropyridin-2-yl)-1H-pyrazol-3-yl]ethyl}-2-(2H-1,2,3-triazol-2-yl)benzamide] | 2.4 | 0.5
Cc1ccc(-n2nccn2)c(C(=O)N(C)CCc2ccn(-c3ccc(F)cn3)n2)c1 [Example 5, N-{2-[1-(5-Fluoropyridin-2-yl)-1H-pyrazol-3-yl]ethyl}-N,5-dimethyl-2-(2H-1,2,3-triazol-2-yl)benzamide] | 8 | 2.1
CCN(CCc1ccn(-c2ccc(F)cn2)n1)C(=O)c1cc(C)ccc1-c1ncccn1 [Example 6, N-Ethyl-N-{2-[1-(5-fluoropyridin-2-yl)-1H-pyrazol-3-yl]ethyl}-5-methyl-2-(pyrimidin-2-yl)benzamide] | 13.7 | 7.1
CCN(CCc1ccn(-c2ccc(F)cn2)n1)C(=O)c1cc(F)ccc1-n1nccn1 [Example 7, N-Ethyl-N-{2-[1-(5-fluoropyridin-2-yl)-1H-pyrazol-3-yl]ethyl}-5-fluoro-2-(2H-1,2,3-triazol-2-yl)benzamide] | 24.9 | 11
CCN(CCc1ccn(-c2ccc(F)cn2)n1)C(=O)c1cc(C)ccc1-n1nccn1 [Example 8, N-Ethyl-N-{2-[1-(5-fluoropyridin-2-yl)-1H-pyrazol-3-yl]ethyl}-5-methyl-2-(2H-1,2,3-triazol-2-yl)benzamide] | 3.8 | 1.8
Cc1ccc(-n2nccn2)c(C(=O)N(C)CCc2cc(-c3ccc(F)cn3)on2)c1 [Example 9, N-{2-[5-(5-Fluoropyridin-2-yl)-1,2-oxazol-3-yl]ethyl}-N,5-dimethyl-2-(2H-1,2,3-triazol-2-yl)benzamide] | 77.4 | 16.7
CCN(CCc1cc(-c2ccc(F)cn2)on1)C(=O)c1cc(C)ccc1-n1nccn1 [Example 10, N-Ethyl-N-{2-[5-(5-fluoropyridin-2-yl)-1,2-oxazol-3-yl]ethyl}-5-methyl-2-(2H-1,2,3-triazol-2-yl)benzamide] | 21.3 | 1.8
CCN(CCc1cc(-c2ccc(F)cn2)no1)C(=O)c1cc(C)ccc1-n1nccn1 [Example 11, N-Ethyl-N-{2-[3-(5-fluoropyridin-2-yl)-1,2-oxazol-5-yl]ethyl}-5-methyl-2-(2H-1,2,3-triazol-2-yl)benzamide] | 26.4 | 17
CCN(CCc1noc(-c2ccc(F)cn2)n1)C(=O)c1cc(C)ccc1-n1nccn1 [Example 12, N-Ethyl-N-{2-[5-(5-fluoropyridin-2-yl)-1,2,4-oxadiazol-3-yl]ethyl}-5-methyl-2-(2H-1,2,3-triazol-2-yl)benzamide] | 11.6 | 1.9
CCN(CCc1cn(-c2ccc(F)cn2)cn1)C(=O)c1cc(C)ccc1-n1nccn1 [Example 13, N-Ethyl-N-{2-[1-(5-fluoropyridin-2-yl)-1H-imidazol-4-yl]ethyl}-5-methyl-2-(2H-1,2,3-triazol-2-yl)benzamide] | 3.4 | 8.9
CN(CCc1ccn(-c2ccc(F)cn2)n1)C(=O)c1ccccc1-n1nccn1 [Example 14, N-{2-[1-(5-Fluoropyridin-2-yl)-1H-pyrazol-3-yl]ethyl}-N-methyl-2-(2H-1,2,3-triazol-2-yl)benzamide] | 132 | 10
CN(CCc1ccn(-c2ccc(F)cn2)n1)C(=O)c1cc(F)ccc1-n1nccn1 [Example 15, 5-Fluoro-N-{2-[1-(5-fluoropyridin-2-yl)-1H-pyrazol-3-yl]ethyl}-N-methyl-2-(2H-1,2,3-triazol-2-yl)benzamide] | 191 | 14.6
CN(CCc1ccn(-c2ccc(F)cn2)n1)C(=O)c1cc(Cl)ccc1-n1nccn1 [Example 16, 5-Chloro-N-{2-[1-(5-fluoropyridin-2-yl)-1H-pyrazol-3-yl]ethyl}-N-methyl-2-(2H-1,2,3-triazol-2-yl)benzamide] | 30.5 | 3.3
CCN(CCc1ccn(-c2ccc(F)cn2)n1)C(=O)c1ccc(F)cc1-n1nccn1 [Example 17, N-Ethyl-4-fluoro-N-{2-[1-(5-fluoropyridin-2-yl)-1H-pyrazol-3-yl]ethyl}-2-(2H-1,2,3-triazol-2-yl)benzamide] | 2.8 | 0.4
CCN(CCc1ccn(-c2ccc(F)cn2)n1)C(=O)c1c(F)cccc1-n1nccn1 [Example 18, N-ethyl-2-fluoro-N-{2-[1-(5-fluoropyridin-2-yl)-1H-pyrazol-3-yl]ethyl}-2-(2H-1,2,3-triazol-2-yl) benzamide] | 6.3 | 1.6
CCN(CCc1ccn(-c2ccc(F)cn2)n1)C(=O)c1ccccc1-c1ncccn1 [Example 19, N-ethyl-N-{2-[1-(5-fluoropyridin-2-yl)-1H-pyrazol-3-yl]ethyl}-2-(pyrimidin-2-yl) benzamide] | 7.4 | 0.9
CCN(CCc1ccn(-c2ccc(F)cn2)n1)C(=O)c1cc(F)ccc1-c1ncccn1 [Example 20, N-ethyl-5-fluoro-N-{2-[1-(5-fluoropyridin-2-yl)-1H-pyrazol-3-yl]ethyl}-2-(pyrimidin-2-yl) benzamide] | 13.2 | 1.7
CCN(CCc1ccn(-c2ccc(F)cn2)n1)C(=O)c1c(F)cccc1-c1ncccn1 [Example 21, N-ethyl-2-fluoro-N-{2-[1-(5-fluoropyridin-2-yl)-1H-pyrazol-3-yl]ethyl}-6-(pyrimidin-2-yl) benzamide] | 50.8 | 11.6
CCN(CCc1ccn(-c2ccc(F)cc2)n1)C(=O)c1ccccc1-n1nccn1 [Example 22, N-Ethyl-N-{2-[1-(4-fluorophenyl)-1H-pyrazol-3-yl]ethyl}-2-(2H-1,2,3-triazol-2-yl)benzamide] | 10.6 | 2.2
CCN(CCc1ccn(-c2cccc(C)n2)n1)C(=O)c1ccccc1-n1nccn1 [Example 23, N-ethyl-N-{2-[1-(6-methylpyridin-2-yl)-1H-pyrazol-3-yl]ethyl}-2-(2H-1,2,3-triazol-2-yl) benzamide] | 10.3 | 3
